These compounds were tested against T1, Osh3 (Aspergillus oryzae, UniProt Q2U562) (assay: microscale thermophoresis (MST), purified fluorescently labelled Osh3). Conditions: not given.
T1 construct: gene AO090020000057
Type: binding

T1 sequence (Q2U562 entry or part of it): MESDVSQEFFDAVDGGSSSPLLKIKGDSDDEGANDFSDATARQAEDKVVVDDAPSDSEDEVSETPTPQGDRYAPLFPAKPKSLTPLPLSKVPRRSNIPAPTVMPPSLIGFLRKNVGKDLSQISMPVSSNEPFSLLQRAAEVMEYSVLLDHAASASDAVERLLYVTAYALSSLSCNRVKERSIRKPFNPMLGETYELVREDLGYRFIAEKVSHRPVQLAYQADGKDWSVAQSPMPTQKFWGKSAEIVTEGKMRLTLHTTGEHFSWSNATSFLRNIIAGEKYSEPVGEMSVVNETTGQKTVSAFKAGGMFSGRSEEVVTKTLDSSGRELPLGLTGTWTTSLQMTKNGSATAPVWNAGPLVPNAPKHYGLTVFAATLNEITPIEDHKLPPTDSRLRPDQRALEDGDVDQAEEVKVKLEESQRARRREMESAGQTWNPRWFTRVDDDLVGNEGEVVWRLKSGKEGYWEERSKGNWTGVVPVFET

SMILES	Kd [µM]
CC(C)[C@H](C)CC[C@@H](C)[C@H]1CC[C@H]2[C@@H]3CC=C4C[C@@H](O)CC[C@]4(C)[C@H]3CC[C@]12C [campesterol]	0.339 ± 0.0781
CC[C@H](CC[C@@H](C)[C@H]1CC[C@H]2[C@@H]3CC=C4C[C@@H](O)CC[C@]4(C)[C@H]3CC[C@]12C)C(C)C [β-sitosterol]	0.0658 ± 0.0246
CC[C@H](/C=C/[C@@H](C)[C@H]1CC[C@H]2[C@@H]3CC=C4C[C@@H](O)CC[C@]4(C)[C@H]3CC[C@]12C)C(C)C [stigmasterol]	0.001 ± 0.0008

Same assay, conditions: read-out: Kd

SMILES	Kd [µM]
CC(C)[C@@H](C)/C=C/[C@@H](C)[C@H]1CC[C@H]2C3=CC=C4C[C@@H](O)CC[C@]4(C)[C@H]3CC[C@]12C [ergosterol]	0.122 ± 0.0243
CC(C)[C@@H](C)/C=C/[C@@H](C)[C@H]1CC[C@H]2C3=C[C@@H](O)[C@@]4(O)C[C@@H](O)CC[C@]4(C)[C@H]3CC[C@]12C [cerevisterol]	0.0034 ± 0.0013
CC(C)CCC[C@@H](C)[C@H]1CC[C@H]2[C@@H]3CC=C4C[C@@H](O)CC[C@]4(C)[C@H]3CC[C@]12C [cholesterol]	0.333 ± 0.0453
CC(C)CCC[C@@H](C)[C@H]1CC[C@H]2[C@@H]3C(=O)C=C4C[C@@H](O)CC[C@]4(C)[C@H]3CC[C@]12C [7-ketocholesterol]	1.46
CC(C)[C@@H](C)/C=C/[C@@H](C)[C@H]1CC[C@@H]2[C@]1(C)CC[C@H]1[C@]23C=C[C@]2(C[C@@H](O)CC[C@]12C)OO3 [ergosterol peroxide]	0.0081 ± 0.0021
C[C@H](CCCC(C)(C)O)[C@H]1CC[C@H]2[C@@H]3CC=C4C[C@@H](O)CC[C@]4(C)[C@H]3CC[C@]12C [25-hydroxycholesterol]	0.0091 ± 0.002

Source: paper PMC9441601, “Aspergillus oryzae accelerates the conversion of ergosterol to ergosterol peroxide by efficiently utilizing cholesterol” (Frontiers in Genetics, 2022)
